Measured values as given in US12329757B2, “Methods for increasing sepiapterin plasma exposure” (PTC Therapeutics MP, Inc., priority 2018, dated 2025).
Like-named read-outs stand apart in the source and are kept apart here.

What was measured:
[1] = Pharmacokinetic parameters for BH4 after single dose of sepiapterin or BH4 in fasted subjects; type: in vivo
Method: Six subjects received sepiapterin in each group and three subjects received BH4 in each group where this treatment was administered. Table 5. Summary of pharmacokinetic parameters for BH4 after administration of single dose of sepiapterin or BH4 in fasted subjects.
Values shown are means of plasma concentrations of BH4 following administration at the doses shown.

[2] = Food effect on administration of sepiapterin: plasma concentrations of BH4 and sepiapterin in fasted and fed subjects; type: in vivo; conditions: sepiapterin 10 mg/kg oral
Method: Method: Subjects received 2 oral doses of sepiapterin (10 mg/kg) separated by 1 week in a fasted and fed state. Subjects were fed a standard high-fat (approximately 50 percent of total caloric content of the meal) and high-calorie (approximately 800 to 1000 calories) meal starting 30 minutes prior to receiving their second oral dose of sepiapterin on Day 8.
Sampling for PK analysis occurred predose on Days 1 and 8 (within 30 minutes before dosing) and 0.5 hr, 1 hr, 2 hr, 4 hr, 8 hr, 12 hr, and 24 hr after the doses on Days 1 and 8. The blood concentrations of sepiapterin and BH4 were analyzed by MNG Labs.

[3] = fasted vs fed prior to administration

AUC0-24 of BH4, sepiapterin compared to BH4 administration [1]: much higher
AUC0-inf of BH4, sepiapterin compared to BH4 administration [1]: much higher
Sepiapterin Concentration in Plasma, Mean ([2]; fasted, 0 h (predose)): 0 nM
Sepiapterin Concentration in Plasma, Median ([2]; fasted, 0 h (predose)): 0 nM
concentration at 24 h ([2]; fasted, 0 h (predose), read-out: Sepiapterin Concentration in Plasma, Maximum): 0 nM
concentration at 2 h ([2]; fasted, 0 h (predose), read-out: Sepiapterin Concentration in Plasma, Minimum): 0 nM
Sepiapterin Concentration in Plasma, Mean ([2]; fasted, 8 h): 0 nM
Sepiapterin Concentration in Plasma, Median ([2]; fasted, 8 h): 0 nM
concentration at 2 h ([2]; fasted, 8 h, read-out: Sepiapterin Concentration in Plasma, Minimum): 0 nM
Sepiapterin Concentration in Plasma, Mean ([2]; fasted, 12 h): 0 nM
Sepiapterin Concentration in Plasma, Median ([2]; fasted, 12 h): 0 nM
concentration at 2 h ([2]; fasted, 12 h, read-out: Sepiapterin Concentration in Plasma, Minimum): 0 nM
Sepiapterin Concentration in Plasma, Mean ([2]; fasted, 24 h): 0 nM
Sepiapterin Concentration in Plasma, Median ([2]; fasted, 24 h): 0 nM
concentration at 2 h ([2]; fasted, 24 h, read-out: Sepiapterin Concentration in Plasma, Minimum): 0 nM
Sepiapterin Concentration in Plasma, Mean ([2]; fed, 0 h (predose)): 0 nM
Sepiapterin Concentration in Plasma, Median ([2]; fed, 0 h (predose)): 0 nM
concentration at 24 h ([2]; fed, 0 h (predose), read-out: Sepiapterin Concentration in Plasma, Maximum): 0 nM
Sepiapterin Concentration in Plasma, Median ([2]; fed, 0.5 h): 0 nM
concentration at 2 h ([2]; fed, 0.5 h, read-out: Sepiapterin Concentration in Plasma, Minimum): 0 nM
concentration at 2 h ([2]; fed, 4 h, read-out: Sepiapterin Concentration in Plasma, Minimum): 0 nM
Sepiapterin Concentration in Plasma, Median ([2]; fed, 8 h): 0 nM
concentration at 2 h ([2]; fed, 8 h, read-out: Sepiapterin Concentration in Plasma, Minimum): 0 nM
Sepiapterin Concentration in Plasma, Mean ([2]; fed, 12 h): 0 nM
Sepiapterin Concentration in Plasma, Median ([2]; fed, 12 h): 0 nM
concentration at 24 h ([2]; fed, 12 h, read-out: Sepiapterin Concentration in Plasma, Maximum): 0 nM
concentration at 2 h ([2]; fed, 12 h, read-out: Sepiapterin Concentration in Plasma, Minimum): 0 nM
Sepiapterin Concentration in Plasma, Mean ([2]; fed, 24 h): 0 nM
Sepiapterin Concentration in Plasma, Median ([2]; fed, 24 h): 0 nM
concentration at 24 h ([2]; fed, 24 h, read-out: Sepiapterin Concentration in Plasma, Maximum): 0 nM
concentration at 2 h ([2]; fed, 24 h, read-out: Sepiapterin Concentration in Plasma, Minimum): 0 nM
concentration at 0.5 h ([2]; human, plasma, fasted, 0.5 h, read-out: Sepiapterin Concentration in Plasma, Minimum): 0 nM
concentration at 4 h ([2]; human, plasma, fasted, 4 h, read-out: Sepiapterin Concentration in Plasma, Minimum): 0 nM
concentration at 8 h ([2]; human, plasma, fasted, 8 h, read-out: Sepiapterin Concentration in Plasma, Maximum): 0 nM
concentration at 12 h ([2]; human, plasma, fasted, 12 h, read-out: Sepiapterin Concentration in Plasma, Maximum): 0 nM
concentration at 24 h ([2]; human, plasma, fasted, 24 h, read-out: Sepiapterin Concentration in Plasma, Maximum): 0 nM
concentration at 0 h ([2]; human, plasma, fed, 0 h (predose), read-out: Sepiapterin Concentration in Plasma, Minimum): 0 nM
concentration at 1 h ([2]; human, plasma, fed, 1 h, read-out: Sepiapterin Concentration in Plasma, Minimum): 0 nM
concentration at 2 h ([2]; human, plasma, fed, 2 h, read-out: Sepiapterin Concentration in Plasma, Minimum): 0 nM
Cmax of BH4 in the plasma, fasted compared to fed [2, 3]: much lower
Cmax of sepiapterin in the plasma, fasted compared to fed [2, 3]: much higher
Structure (SMILES): C[C@H](O)C(=O)C1=Nc2c(nc(N)[nH]c2=O)NC1 [sepiapterin, Sepiapterin]
